Measured values: ChEMBL document CHEMBL3813667, “Triterpene sapogenin-polyarginine conjugates exhibit promising antibacterial activity against Gram-positive strains” (Bioorg Med Chem, 2016)
≈ marks a conversion by molar mass, not a printed value. Where a SMILES comes first, the peptide text is derived from it.

What was measured:
[1] = Therapeutic index, ratio of HC50 for human erythrocytes to MIC for Staphylococcus aureus ATCC 25923; conditions: read-out: TI
[2] = tested on: Escherichia coli; assay: Antibacterial activity against Escherichia coli ATCC 25922 after 16 hrs by broth microdilution method; format: functional; conditions: ATCC 25922, 16 h
[3] = Toxicity against human erythrocytes assessed as hemolysis after 1 hr by spectrophotometric analysis; format: cell-based, Erythrocyte
[4] = Therapeutic index, ratio of HC50 for human erythrocytes to MIC for Bacillus subtilis ATCC 6633; conditions: read-out: TI
[5] = tested on: Staphylococcus aureus; assay: Antibacterial activity against Staphylococcus aureus ATCC 25923 after 16 hrs by broth microdilution method; format: functional; conditions: ATCC 25923, 16 h
[6] = tested on: Bacillus spizizenii; assay: Antibacterial activity against Bacillus subtilis ATCC 6633 after 16 hrs by broth microdilution method; format: functional; conditions: ATCC 6633, 16 h
[7] = Solubility of the compound in water at 40 mg sonicated for 15 mins at 25 degC measured after 5 hrs; format: physicochemical

| SMILES | selectivity ratio [1] | MIC [2] [µM] | HC50 at 1 h [3] [µM] | selectivity ratio [4] | MIC [5] [µM] | MIC [6] [µM] | solubility at 5 h [7] [mg/mL] |
| --- | --- | --- | --- | --- | --- | --- | --- |
| C[C@H]1[C@H](C)CC[C@]2(C(=O)OCc3cn(CC(=O)N[C@@H](CCCNC(=N)N)C(=O)N[C@@H](CCCNC(=N)N)C(=O)O)nn3)CC[C@]3(C)C(=CC[C@@H]4[C@@]5(C)CC[C@H](O)C(C)(C)[C@@H]5CC[C@]43C)[C@H]12 | 11 | > 138 | 49 | 11 | 4.3 (≈ 3.91 µg/mL) | 4.3 (≈ 3.91 µg/mL) | – |
| C[C@H]1[C@H](C)CC[C@]2(C(=O)OCc3cn(CC(=O)N[C@@H](CCCNC(=N)N)C(=O)N[C@@H](CCCNC(=N)N)C(=O)N[C@@H](CCCNC(=N)N)C(=O)N[C@@H](CCCNC(=N)N)C(=O)N[C@@H](CCCNC(=N)N)C(=O)N[C@@H](CCCNC(=N)N)C(=O)N[C@@H](CCCNC(=N)N)C(=O)N[C@@H](CCCNC(=N)N)C(=O)O)nn3)CC[C@]3(C)C(=CC[C@@H]4[C@@]5(C)CC[C@H](O)C(C)(C)[C@@H]5CC[C@]43C)[C@H]12 | 10 | > 68 | 41 | 10 | 4.2 (≈ 7.75 µg/mL) | 4.2 (≈ 7.75 µg/mL) | – |
| C=C(C)[C@@H]1CC[C@]2(C(=O)OCc3cn(CC(=O)N[C@@H](CCCNC(=N)N)C(=O)N[C@@H](CCCNC(=N)N)C(=O)O)nn3)CC[C@]3(C)[C@H](CC[C@@H]4[C@@]5(C)CC[C@H](O)C(C)(C)[C@@H]5CC[C@]43C)[C@@H]12 | – | > 138 | – | – | 8.6 (≈ 7.81 µg/mL) | 4.3 (≈ 3.91 µg/mL) | 48 (≈ 52.9 mM) |
| C=C(C)[C@@H]1CC[C@]2(C(=O)OCc3cn(CC(=O)N[C@@H](CCCNC(=N)N)C(=O)O)nn3)CC[C@]3(C)[C@H](CC[C@@H]4[C@@]5(C)CC[C@H](O)C(C)(C)[C@@H]5CC[C@]43C)[C@@H]12 | – | > 166 | 397 | 5 | > 166 | 83 (≈ 62.4 µg/mL) | 1.3 (≈ 1.73 mM) |
| C=C(C)[C@@H]1CC[C@]2(C(=O)O)CC[C@]3(C)[C@H](CC[C@@H]4[C@@]5(C)CC[C@H](OC(=O)CCc6cn(CC(=O)N[C@@H](CCCNC(=N)N)C(=O)N[C@@H](CCCNC(=N)N)C(=O)O)nn6)C(C)(C)[C@@H]5CC[C@]43C)[C@@H]12 | > 103 | > 131 | > 841 | > 205 | 8.2 (≈ 7.79 µg/mL) | 4.1 (≈ 3.9 µg/mL) | – |
| C=C(C)[C@@H]1CC[C@]2(C(=O)O)CC[C@]3(C)[C@H](CC[C@@H]4[C@@]5(C)CC[C@H](OC(=O)CCc6cn(CC(=O)N[C@@H](CCCNC(=N)N)C(=O)N[C@@H](CCCNC(=N)N)C(=O)N[C@@H](CCCNC(=N)N)C(=O)N[C@@H](CCCNC(=N)N)C(=O)N[C@@H](CCCNC(=N)N)C(=O)O)nn6)C(C)(C)[C@@H]5CC[C@]43C)[C@@H]12 | 117 | > 88 | 323 | 117 | 2.7 (≈ 3.83 µg/mL) | 2.7 (≈ 3.83 µg/mL) | – |
| C[C@H]1[C@H](C)CC[C@]2(C(=O)OCc3cn(CC(=O)N[C@@H](CCCNC(=N)N)C(=O)N[C@@H](CCCNC(=N)N)C(=O)N[C@@H](CCCNC(=N)N)C(=O)N[C@@H](CCCNC(=N)N)C(=O)N[C@@H](CCCNC(=N)N)C(=O)O)nn3)CC[C@]3(C)C(=CC[C@@H]4[C@@]5(C)CC[C@H](O)C(C)(C)[C@@H]5CC[C@]43C)[C@H]12 | 6 | > 91 | 25 | 11 | 5.7 (≈ 7.85 µg/mL) | 2.8 (≈ 3.85 µg/mL) | – |
| C=C(C)[C@@H]1CC[C@]2(C(=O)OCc3cn(CC(=O)N[C@@H](CCCNC(=N)N)C(=O)N[C@@H](CCCNC(=N)N)C(=O)N[C@@H](CCCNC(=N)N)C(=O)N[C@@H](CCCNC(=N)N)C(=O)N[C@@H](CCCNC(=N)N)C(=O)N[C@@H](CCCNC(=N)N)C(=O)N[C@@H](CCCNC(=N)N)C(=O)N[C@@H](CCCNC(=N)N)C(=O)O)nn3)CC[C@]3(C)[C@H](CC[C@@H]4[C@@]5(C)CC[C@H](O)C(C)(C)[C@@H]5CC[C@]43C)[C@@H]12 | – | > 68 | – | – | 4.2 (≈ 7.75 µg/mL) | 4.2 (≈ 7.75 µg/mL) | – |
| C[C@H]1[C@H](C)CC[C@]2(C(=O)O)CC[C@]3(C)C(=CC[C@@H]4[C@@]5(C)CC[C@H](O)C(C)(C)[C@@H]5CC[C@]43C)[C@H]12 [URSOLIC ACID] | – | > 1100 | – | – | 137 (≈ 62.6 µg/mL) | 68 (≈ 31.1 µg/mL) | – |
| C[C@H]1[C@H](C)CCC2(C(=O)O)CC[C@]3(C)C(=CC[C@@H]4[C@@]5(C)CC[C@H](OC(=O)CCc6cn(CC(=O)N[C@@H](CCCNC(=N)N)C(=O)N[C@@H](CCCNC(=N)N)C(=O)N[C@@H](CCCNC(=N)N)C(=O)O)nn6)C(C)(C)[C@@H]5CC[C@]43C)[C@H]12 (single isomer, unassigned) | 51 | > 113 | 360 | 102 | 7 (≈ 7.75 µg/mL) | 3.5 (≈ 3.87 µg/mL) | – |
| NC(N)=NCCC[C@H](NC(=O)[C@@H](N)CCCN=C(N)N)C(=O)O (H-Arg-Arg-OH) | – | > 1520 | – | – | > 1520 | > 1520 | – |
| C[C@H]1[C@H](C)CC[C@]2(C(=O)OCc3cn(CC(=O)N[C@@H](CCCNC(=N)N)C(=O)N[C@@H](CCCNC(=N)N)C(=O)N[C@@H](CCCNC(=N)N)C(=O)O)nn3)CC[C@]3(C)C(=CC[C@@H]4[C@@]5(C)CC[C@H](O)C(C)(C)[C@@H]5CC[C@]43C)[C@H]12 | 8 | 14.7 (≈ 15.6 µg/mL) | 29 | 8 | 3.7 (≈ 3.94 µg/mL) | 3.7 (≈ 3.94 µg/mL) | – |
